Our source for the IC50 values is patent publication US7507727B2, “Substituted quinobenzoxazine analogs and methods of using thereof” (Cylene Pharmaceuticals, Inc., priority 2003, dated 2009).

Read-outs that look alike come from different tables or passages of the source.

For the test, the target named is c-Myc template DNA (c-myc quadruplex). Nature of the test: Quadruplex binding / stop assay (Taq polymerase arrest, capillary electrophoresis).
Where [1] appears, read: read-out: Stop Data c-Myc μM, concentration at which 50% of the DNA was arrested (arrested:full-length 1:1).
Where [2] appears, read: read-out: S DATA, Table 1D, stop assay data.

Take `CC(C)(C)OC(=O)N[C@H]1CCN(c2c(F)cc3c(=O)c(C(=O)NCCN4CCCC4)cn4c5cc6c(cc5oc2c34)c(=O)c2ccccc26)C1` [compound 202]: under setting [1], the IC50 was 1.75 µM. Same read-out and setting: with `CN1CCCC1CCNC(=O)c1cn2c3c(c(NCCc4c[nH]c5ccccc45)c(F)cc3c1=O)Oc1cc3ccccc3cc1-2` (stereo not shown) [compound 287] the figure was 1.75 µM. As to `CN(C)CCCCNc1c(F)cc2c(=O)c(C(=O)N3CCC(N)C3)cn3c4cc5c(=O)c6ccccc6c(=O)c5cc4oc1c23` (stereo not shown) [compound 96], the IC50 under setting [1] was found to be 2.5 µM. Take `CN1CCCC1CCNC(=O)c1cn2c3c(c(NCCC4CCCN4C)c(F)cc3c1=O)Oc1c-2ccc2ccccc12` (stereo not shown) [compound 525]: under setting [1], the IC50 stood at 0.375 µM. Turning to `O=C(O)c1cn2c3c(c(NCCN4CCCC4)c(F)cc3c1=O)Oc1c-2ccc2ccccc12` [compound 3], the IC50 under setting [1] was found to be 2.5 µM. The same measure, in the same setting: with `O=C(NCCN1CCOCC1)c1cn2c3c(c(NCCN4CCCC4)c(F)cc3c1=O)Oc1cc3ccccc3cc1-2` [compound 70] the figure was 2.5 µM. As to `NCCCCNC(=O)c1cn2c3c(c(NCCN4CCCC4)c(F)cc3c1=O)Oc1ccccc1-2` [compound 1599], under setting [2], the IC50 was greater than 15 µM. With `CN1CCCC1CCNC(=O)c1cn2c3c(c(NCCN4CCCCC4)c(F)cc3c1=O)Oc1cc3ccccc3cc1-2` (stereo not shown) [compound 432], the IC50 under setting [1] was 0.75 µM. With `CC(C)(C)OC(=O)NC1CCN(c2c(F)cc3c(=O)c(C(=O)NCCCCNC(=N)N)cn4c3c2Oc2ccccc2-4)C1` (stereo not shown) [compound 1632], under setting [2], the IC50 is greater than 15 µM. Consider `CN1CCCC1CCNC(=O)c1cn2c3c(c(N4CCNC(c5cccnc5)C4)c(F)cc3c1=O)Oc1cc3ccccc3cc1-2` (stereo not shown) [compound 265], for which the IC50 under setting [1] is 1.75 µM. Still for that read-out and setting: then `CN1CCCC1CCNC(=O)c1cn2c3c(c(N4CCC(n5c(=O)[nH]c6ccccc65)CC4)c(F)cc3c1=O)Oc1cc3ccccc3cc1-2` (stereo not shown) [compound 324], with 1 µM; and `CN1CCN(CCCNC(=O)c2cn3c4c(c(N5CCC(N)C5)c(F)cc4c2=O)Oc2ccccc2-3)CC1` (stereo not shown) [compound 459], with 0.75 µM; and `CN(C)c1c(F)cc2c(=O)c(C(=O)O)cn3c4cc5oc6cc(N)ccc6[nH]c5cc4oc1c23` [compound 10], with 1.75 µM. As for `CC(C)(C)OC(=O)N[C@@H]1CCN(c2c(F)cc3c(=O)c(C(=O)NCCN4CCCC4)cn4c3c2Oc2cc3ccccc3cc2-4)C1` [compound 121], the IC50 under setting [1] is 1.75 µM.

With `CN1CCCC1CCNC(=O)c1cn2c3c(c(NCCN4CCOCC4)ccc3c1=O)Oc1cc3ccccc3cc1-2` (stereo not shown) [compound 1547], the IC50 under setting [2] is greater than 15 µM. With `CN1CCCN(c2c(F)cc3c(=O)c(C(=O)N4CCOCC4)cn4c3c2Oc2cc3ccccc3cc2-4)CC1` [compound 41], the IC50 under setting [1] turned out to be 2.5 µM. The same measure, in the same setting: then `CN1CCCC1CCNC(=O)c1cn2c3c(c(NCC4CCNCC4)c(F)cc3c1=O)Oc1cc3ccccc3cc1-2` (stereo not shown) [compound 252], with 1.75 µM. For the molecule `O=C(c1cn2c3c(c(N4CC5CCCNC5C4)c(F)cc3c1=O)Oc1cc3ccccc3cc1-2)N1CCC(N2CCCC2)CC1` (stereo not shown) [compound 1643], the IC50 under setting [2] is greater than 15 µM. As for `CN(C)CCCCNC(=O)c1cn2c3c(c(N4CC[C@@H](N)C4)c(F)cc3c1=O)Oc1c-2ccc2ccccc12` [compound 156], the IC50 under setting [1] came to 1.75 µM. On the same count and under the same terms, then `CN1CCCC1CCNc1c(F)cc2c(=O)c(C(=O)NCCCn3ccnc3)cn3c2c1Oc1cc2c(cc1-3)oc1ccccc12` (stereo not shown) [compound 159], with 1.75 µM.

Regarding `CN(C)CCCCNc1ccc2c(=O)c(C(=O)NC3CC(C)(C)NC(C)(C)C3)cn3c2c1Oc1cc2ccccc2cc1-3` [compound 1543], the IC50 under setting [2] turned out to be 1.75 µM. On the same count and under the same terms, then `COc1ccccc1CCNc1c(F)cc2c(=O)c(C(=O)NCCC3CCCN3C)cn3c2c1Oc1cc2ccccc2cc1-3` (stereo not shown) [compound 1684], with greater than 15 µM; and `CN1CCN(CCCNC(=O)c2cn3c4c(c(NCCN5CCOCC5)c(F)cc4c2=O)Oc2ccccc2-3)CC1` [compound 1606], with greater than 15 µM; and `CCN(CC)CCCC(C)NC(=O)c1cn2c3c(c(N4CCC(c5cnccn5)C4)ccc3c1=O)Oc1ccccc1-2` (stereo not shown) [compound 1721], with 3 µM.

`O=C(NCCN1CCCC1)c1cn2c3cc4c(cc3oc3c(N5CC6CCCNC6C5)c(F)cc(c1=O)c32)c(=O)c1ccccc14` (stereo not shown) [compound 590]: the IC50 under setting [1] came out at 0.18 µM.

Regarding `CN(C)CC(C)(C)CNC(=O)c1cn2c3c(c(NCCN4CCOCC4)c(F)cc3c1=O)Oc1ccccc1-2` [compound 1612], the IC50 under setting [2] is greater than 15 µM. For the molecule `CN(C)CCCCNc1c(F)cc2c(=O)c(C(=O)Nc3ccc(N(C)C)cc3)cn3c2c1Oc1c-3ccc2ccccc12` [compound 76], the IC50 under setting [1] was 2.5 µM. On to `CN1CCCC1CCNc1c(F)cc2c(=O)c(C(=O)N3CCOCC3)cn3c2c1Oc1cc2ccccc2cc1-3` (stereo not shown) [compound 495], for which the IC50 under setting [1] came out at 0.42 µM.

As for `CN1CCN(CCCNC(=O)c2cn3c4c(c(NCCC5CCCN5C)c(F)cc4c2=O)Oc2cc4ccccc4cc2-3)CC1` (stereo not shown) [compound 123], under setting [1], the IC50 turned out to be 1.75 µM. On the same count and under the same terms, then `N=C(N)NCC1CCCC(CNC(=O)c2cn3c4c(c(NCCCN5CCOCC5)c(F)cc4c2=O)Oc2cc4ccccc4cc2-3)C1` (stereo not shown) [compound 331], with 1 µM; and `N[C@@H]1CCN(c2c(F)cc3c(=O)c(C(=O)NCCN4CCCC4)cn4c3c2Oc2c-4ccc3ccccc23)C1` [compound 401], with 0.75 µM. Take `N=C(N)NCC1CCCC(CNC(=O)c2cn3c4c(c(NCCCN5CCOCC5)c(F)cc4c2=O)Oc2cc4ccccc4cc2-3)C1` (stereo not shown) [compound 1651]: the IC50 under setting [2] was 1 µM.

Turning to `CN1CCCC1CCNC(=O)c1cn2c3c(c(NC4CCOC(C)(C)C4)c(F)cc3c1=O)Oc1cc3ccccc3cc1-2` (stereo not shown) [compound 1751], the IC50 under setting [2] is greater than 15 µM. Turning to `CC(C)(C)OC(=O)N[C@@H]1CCN(C(=O)c2cn3c4c(c(NCCCN5CCOCC5)c(F)cc4c2=O)Oc2cc4ccccc4cc2-3)C1` [compound 50], the IC50 under setting [1] came out at 2.5 µM. Take `N[C@@H]1CCN(c2c(F)cc3c(=O)c(C(=O)NCCN4CCOCC4)cn4c3c2Oc2c-4ccc3ccccc23)C1` [compound 77]: under setting [1], the IC50 was 2.5 µM. In the case of `CC1CCN(CCCNc2c(F)cc3c(=O)c(C(=O)NCCC4CCCN4C)cn4c3c2Oc2cc3ccccc3cc2-4)CC1` (stereo not shown) [compound 1501], under setting [2], the IC50 amounted to 0.75 µM. For the molecule `COc1ccc2[nH]cc(CCNc3c(F)cc4c(=O)c(C(=O)NCCC5CCCN5C)cn5c4c3Oc3cc4ccccc4cc3-5)c2c1` (stereo not shown) [compound 290], the IC50 under setting [1] amounted to 1.75 µM.

In the case of `O=C(NCCN1CCCC1)c1cn2c3cc4c(cc3oc3c(NCCCN5CCOCC5)c(F)cc(c1=O)c32)c(=O)c1ccccc14` [compound 418], under setting [1], the IC50 came out at 0.75 µM. The same measure, in the same setting: with `N[C@@H]1CCN(C(=O)c2cn3c4c(c(NCCCN5CCOCC5)c(F)cc4c2=O)Oc2c-3ccc3ccccc23)C1` [compound 83] the figure was 2.5 µM; with `CN1CCN(CCCNc2ccc3c(=O)c(C(=O)NCCCN4CCOCC4)cn4c3c2Oc2cc3ccccc3cc2-4)CC1` [compound 278], 1.75 µM.

Take `CCOC(=O)c1cn2c3c(c(N4CCN(C(C)=O)CC4)c(F)cc3c1=O)Oc1cc(Cl)ccc1-2` [compound 1806]: the IC50 under setting [2] was greater than 15 µM.

Consider `O=C(NCCN1CCOCC1)c1cn2c3c(c(N4CCC(c5cnccn5)C4)c(F)cc3c1=O)Oc1ccc(Cl)cc1-2` (stereo not shown) [compound 1789], for which the IC50 under setting [2] was greater than 15 µM. Same read-out and setting: then `O=C(NCCN1CCCC1)c1cn2c3c(c(N4CCN(C(=O)N5CCC[C@H]5C(=O)C(F)(F)F)CC4)c(F)cc3c1=O)Oc1cc(Cl)ccc1-2` [compound 1824], with 9.4 µM.
